In US12390465B2, “Coumarin derivative for therapy or prophylaxis of a cell proliferative disorder” (The Institute of Cancer Research: Royal Cancer Hospital, priority 2017, dated 2025):

Tests used:
Format in all cases: in vivo, human
solid cancers = experiment: Earlier dosing regimen (twice weekly, 4 mg per administration) in patients; conditions: some cases
Protocol: In regard to the usage and dosage of compound (I) or a salt thereof, a potassium salt of compound (I) is known to be administered to patients with solid cancers such as non-small-cell lung cancer, ovarian cancer, endometrial cancer, and colorectal cancer twice weekly at a dose of 4 mg per administration (see non patent document 1).

[1] = test system: KRAS mutant and NRAS mutant IgG lambda multiple myeloma; experiment: Example 1: oral treatment of a multiple myeloma patient, 3 weeks on/1 week off; conditions: for FLCk: pre 325 mg/L, 4 mg twice weekly
Protocol: A potassium salt of compound (I) (the potassium salt being also referred to as the “IMP” in this example) was orally administered to a patient with KRAS mutant and NRAS mutant IgG lambda multiple myeloma at a dose of 4 mg twice weekly (Tuesday and Friday) in 4-week cycles consisting of 3 weeks of treatment followed by 1 week of rest (3 weeks on/1 week off). Dexamethasone was not used in combination with the IMP.
The patient started dosing on 29 Nov., 2016. […] initial and ongoing toxicity was intermittent Grade 1 diarrhoea that may be related to the IMP.
The patient had previously been treated with: • Autologous stem cell transplant • Proteasome inhibitor • Immunomodulatory drug • Cyclophosphamide+Dexamethasone+Thalidomide • Melphalan • Lenalidomide • Cyclophosphamide+Bortezomib • Dexamethasone • Spine T3-T12, 5 fractions (radiotherapy)

[2] = test system: HRAS mutant apocrine adenocarcinoma of the scalp; experiment: Example 3: oral treatment of an apocrine adenocarcinoma patient following the dosing guidance; conditions: for reduction in tumor size: CT scan
Protocol: A potassium salt of compound (I) (the potassium salt being also referred to as the “IMP” in this example) was orally administered to a patient with HRAS mutant apocrine adenocarcinoma of the scalp. Apocrine adenocarcinoma of the scalp is a cutaneous sweat gland carcinoma. The patient was diagnosed in 2014, and had radiotherapy and surgery twice before treatment with the IMP.
Treatment of the patient by the IMP was started on 8th Jan., 2018 at a dose of 4 mg twice weekly in 4-week cycles. In Cycle 1 Week 3, the patient had Grade 2 acneiform rash and Grade 2 diarrhoea and thus the dosage was reduced to a 3 weeks on/1 week off schedule with 4 mg twice weekly. The grade of acneiform rash was one (1) in Cycle 2 Day 1, […] in Cycle 2 Day 22, and two (2) in Cycle 3 Day 1. Thus, the dose at Cycle 3 Day 1 was not reduced to 3.2 mg and was determined as 4 mg.
Treatment of the patient by the IMP is ongoing as of 30th Apr., 2018 (Cycle 5 Day 1) without any Grade 2 or higher rash or diarrhoea being observed.

[3] = test system: KRAS mutant non-small-cell lung cancer; experiment: Example 2: oral treatment of a non-small-cell lung cancer patient with stepwise dose reduction; conditions: for best response, reduction in target lesions by RECIST 1.1: CT scan
Protocol: A potassium salt of compound (I) (the potassium salt being also referred to as the “IMP” in this example) was orally administered to a patient with KRAS mutant non-small-cell lung cancer.
The patient started treatment on 1 Sep., 2014. The IMP was first administered at a dose of 4 mg twice weekly in 4-week cycles consisting of 4 weeks of treatment (4 mg 4 wk on). In Cycle 9, due to Grade 3 maculopapular rash, the dosage was reduced to 3.2 mg twice weekly in 4-week cycles (3.2 mg 4 wk on). In Cycle 22, due to Grade 3 facial rash, the dosage was reduced again to a 3 weeks on/1 week off schedule with 3.2 mg twice weekly (3.2 mg 3 wk on/1 wk off).
The horizontal axis (X-axis) represents the treatment cycle number and the vertical axis (Y-axis) represents the rate of change of tumor size from baseline. The tumor size was measured by CT scan. The best responses of the dosing schedules 4 mg 4 wk on, 3.2 mg 4 wk on, and 3.2 mg 3 wk on/1 wk off were 58% reduction, 61% reduction, and 68% reduction in target lesions by RECIST 1.1, respectively. Treatment of the patient by the IMP is being continued as of 18 Apr., 2018 (at Cycle 48, equivalent to 3.6 years) without any Grade 2 or higher rash being observed.
The patient had previously been treated with: • Carboplatin/Pemetrexed • Pemetrexed • Docetaxel • Pleurodesis (October 2012) (surgery)

[4] = 4 mg twice weekly in 4-week cycles, Cycle 1 Week 3

## CNS(=O)(=O)Nc1nccc(Cc2c(C)c3ccc(Oc4ncccn4)cc3oc2=O)c1F [compound (I)]
Solid cancers
  adverse event leading to unplanned dose interruption and/or dose reduction: worsening of skin rash

## CNS(=O)(=O)[N-]c1nccc(Cc2c(C)c3ccc(Oc4ncccn4)cc3oc2=O)c1F.[K+] [IMP]
[1]; 4 mg twice weekly oral, no dexamethasone
  rash related to the IMP (grade): 2 Grade
[1]; 4 mg twice weekly oral, no dexamethasone, initial and ongoing, intermittent, may be related to the IMP
  diarrhoea (toxicity grade): 1 Grade
[1]; 4 mg twice weekly oral, ongoing
  response as per IMWG criteria: partial response
[1]; after 1 cycle
  FLCk: 161 mg/L
[1]; after 2 cycles
  FLCk: 264 mg/L
[2]; [4]
  acneiform rash (grade): 2 Grade
  diarrhoea (grade): 2 Grade
[2]; 4 mg twice weekly, 3 weeks on/1 week off
  response by RECIST 1.1 (tumor size by CT scan): partial response
[2]; 4 mg twice weekly, 3 weeks on/1 week off, Cycle 2 Day 1
  acneiform rash (grade): 1 Grade
[2]; 4 mg twice weekly, 3 weeks on/1 week off, Cycle 2 Day 22
  acneiform rash (grade): 3 Grade
[2]; 4 mg twice weekly, 3 weeks on/1 week off, Cycle 3 Day 1
  acneiform rash (grade): 2 Grade
[2]; Cycle 2 Day 22
  reduction in tumor size: 54%
[2]; Cycle 4 Day 15
  reduction in tumor size: 58%
[2]; as of Cycle 5 Day 1
  diarrhoea observed (grade) during ongoing treatment: < 2 Grade
  rash observed (grade) during ongoing treatment: < 2 Grade
[3]; 3.2 mg twice weekly, 3 wk on/1 wk off
  rash (grade) after the reductions: 1 Grade
[3]; 3.2 mg twice weekly, 4 wk on, Cycle 22
  facial rash (grade): 3 Grade
[3]; 4 mg twice weekly, 4 wk on, Cycle 9
  maculopapular rash (grade): 3 Grade
[3]; as of Cycle 48 (3.6 years)
  rash observed (grade) during continued treatment: < 2 Grade
[3]; maintained at Cycle 40, 3.2 mg 3 wk on/1 wk off
  response by RECIST 1.1: partial response
[3]; schedule 3.2 mg 3 wk on/1 wk off
  best response, reduction in target lesions by RECIST 1.1: 68%
[3]; schedule 3.2 mg 4 wk on
  best response, reduction in target lesions by RECIST 1.1: 61%
[3]; schedule 4 mg 4 wk on
  best response, reduction in target lesions by RECIST 1.1: 58%
